Assay results reported in US20220054524A1, “NEW CONJUGATED NUCLEIC ACID MOLECULES AND THEIR USES” (ONXEO, priority 2018, published 2022).

Key:
Assay type in all cases: cell-based
U937 cells = assay: Selection of acquired resistance by repeated treatment cycles
Protocol: Cell cultures were performed with the lymphoma cell line U937. Cells were grown in complete RPMI medium supplemented with 10% FBS and 1% Penicillin/Streptomycin and maintained at 37° C. in a humidified atmosphere at 5% CO2. This cell line was chosen according to its high sensitivity to both OX401 and talazoparib. For repeated cycles of the treatment to select resistance, U937 cells were seeded at appropriate densities (2.10^5 cells/mL) and incubated 24 h at 37° C. before addition of the drug at doses corresponding to 10-20% survival compared to non-treated cells. Resistances were selected under 2 μM talazoparib or 1.5 μM OX401. Cells were harvested on day 4 after treatment, washed, and counted after staining with 0.4% trypan blue (Eve™ counting slides, NanoEnTek). After counting, cells were seeded in appropriate culture plates, and allowed to recover (drug free period) for 3 to 7 days. Another cycle of treatment/recovery was then started for up to 4 cycles.

U937 parental cells = assay: XTT survival, U937 parental cells; conditions: Homo sapiens, U-937, 96 h, 4 days
Protocol: (§1) Cell cultures were performed with the lymphoma cell line U937. Cells were grown in complete RPMI medium supplemented with 10% FBS and 1% Penicillin/Streptomycin and maintained at 37° C. in a humidified atmosphere at 5% CO2. This cell line was chosen according to its high sensitivity to both OX401 and talazoparib. To assess the acquired resistances irreversibility, U937 parental or resistant cells were seeded in 96 well-plates (2.10^4 cells/well) and treated with increasing concentrations of talazoparib for 4 days. Following drug exposure, cell survival was measured using the XTT assay (Sigma Aldrich). Briefly, the XTT solution was added directly to each well containing cell culture and the cells incubated for 5 hours at 37° C. before reading the absorbance at 490 nm and 690 nm using a microplate reader (BMG Fluostar, Galaxy). Cell survival was calculated as the ratio of living treated cells to living mock-treated cells. The IC50 (which represents the dose at which 50% of the cells are viable) was calculated by a non-linear regression model using GraphPad Prism software (version 5.04) by plotting the percentage viability against the Log of the drug concentration on each cell line.

[1] = tested on: Ta11, Ta12 and Ta13 resistant populations; assay: XTT survival, talazoparib-resistant U937 populations; conditions: Homo sapiens, U-937, 96 h, 4 days
Protocol: as §1

MDA-MB-231 cells = assay: Drug-induced DNA damage (γH2AX) by flow cytometry and immunofluorescence; conditions: MDA-MB-231, 5 μM, 48 h
Protocol: (§2) Cell cultures were performed with the triple negative breast cancer cell line MDA-MB-231. Cells were grown in complete L15 Leibovitz medium and maintained at 37° C. in a humidified atmosphere at 0% Co2.
For immunostaining, cells are seeded on cover slips (Menzel, Braunschweig, Germany) at a concentration of 5×10^5 cells and incubated at 37° C. during 1 day. Cells are then treated with olaparib (5 μM)+/−OX401 (5 μM). 48 h after treatment, cells are fixed for 20 min in 4% paraformaldehyde/Phosphate-Buffered Saline (PBS 1×), permeabilized in 0.5% Triton X-100 for 10 min, blocked with 2% bovine serum albumin/PBS 1× and incubated with primary antibody for 1 h at 4° C. All secondary antibodies were used at a dilution of 1/200 for 45 min at Room Temperature (RT), and DNA was stained with 4′, 6-diamidino-2-phenylindole (DAPI). […]
Cells were treated with OX401 (5 μM) or Olaparib (5 μM) for 48 hours and then fixed and permeabilized with cold (−20° C.) 70% ethanol for at least 2 hours. […] Fluorescence intensities were determined with a Guava EasyCyte cytometer (Luminex). Data were analyzed using FlowJo software (Tree Star, Calif.).

[2] = tested on: homologous recombination repair pathway; assay: Homologous recombination pathway activity (Rad51 foci); conditions: MDA-MB-231, olaparib 5 μM alone, 48 h
Protocol: as §2
For immunostaining, cells are seeded on cover slips (Menzel, Braunschweig, Germany) at a concentration of 5×10^5 cells and incubated at 37° C. during 1 day. Cells are then treated with olaparib (5 μM)+/−OX401 (5 μM). 48 h after treatment, cells are fixed for 20 min in 4% paraformaldehyde/Phosphate-Buffered Saline (PBS 1×), permeabilized in 0.5% Triton X-100 for 10 min, blocked with 2% bovine serum albumin/PBS 1× and incubated with primary antibody for 1 h at 4° C. All secondary antibodies were used at a dilution of 1/200 for 45 min at Room Temperature (RT), and DNA was stained with 4′, 6-diamidino-2-phenylindole (DAPI). The following antibodies were used: primary monoclonal mouse anti-phospho-H2AX (Millipore, Guyancourt, France), anti-Rad51 rabbit antibody (Merk Millipore, Darmstadt, Allemagne), secondary goat anti-mouse IgG conjugated with Alexa-633 (Molecular Probes, Eugene, Oreg., USA) and secondary goat anti-rabbit IgG conjugated with Alexa-488 (Molecular Probes, Eugene, Oreg., USA).

Row | Compound | Cell survival after the first cycle (U937 cells; U937, talazoparib 2 μM) [%] | Cell growth during drug-free amplification periods (U937 cells; U937, talazoparib 2 μM or OX401 1.5 μM, cycles of treatment) | Cell survival after the forth cycle of treatment (U937 cells; U937, talazoparib 2 μM, 33 days after treatment start) | IC50 (U937 parental cells) [µM] | IC50 [1] [µM] | γH2AX DSB biomarker (double-strand breaks accumulation) (MDA-MB-231 cells) | γH2AX and Rad51 foci [2]
1 | Cn1ncnc1[C@H]1c2n[nH]c(=O)c3cc(F)cc(c23)N[C@@H]1c1ccc(F)cc1 [talazoparib] | 10 | recovered | more than 50% | 2 | > 4 | – | –
2 | O=C(c1cc(Cc2n[nH]c(=O)c3ccccc23)ccc1F)N1CCN(C(=O)C2CC2)CC1 [olaparib] | – | – | – | – | – | high phosphorylation of histone H2AX | accumulation of γH2AX Foci that co-localize with Rad51 foci
